Target: T1, human TLR7 (Homo sapiens, UniProt Q9NYK1)
T1 sequence (Q9NYK1 27-1049): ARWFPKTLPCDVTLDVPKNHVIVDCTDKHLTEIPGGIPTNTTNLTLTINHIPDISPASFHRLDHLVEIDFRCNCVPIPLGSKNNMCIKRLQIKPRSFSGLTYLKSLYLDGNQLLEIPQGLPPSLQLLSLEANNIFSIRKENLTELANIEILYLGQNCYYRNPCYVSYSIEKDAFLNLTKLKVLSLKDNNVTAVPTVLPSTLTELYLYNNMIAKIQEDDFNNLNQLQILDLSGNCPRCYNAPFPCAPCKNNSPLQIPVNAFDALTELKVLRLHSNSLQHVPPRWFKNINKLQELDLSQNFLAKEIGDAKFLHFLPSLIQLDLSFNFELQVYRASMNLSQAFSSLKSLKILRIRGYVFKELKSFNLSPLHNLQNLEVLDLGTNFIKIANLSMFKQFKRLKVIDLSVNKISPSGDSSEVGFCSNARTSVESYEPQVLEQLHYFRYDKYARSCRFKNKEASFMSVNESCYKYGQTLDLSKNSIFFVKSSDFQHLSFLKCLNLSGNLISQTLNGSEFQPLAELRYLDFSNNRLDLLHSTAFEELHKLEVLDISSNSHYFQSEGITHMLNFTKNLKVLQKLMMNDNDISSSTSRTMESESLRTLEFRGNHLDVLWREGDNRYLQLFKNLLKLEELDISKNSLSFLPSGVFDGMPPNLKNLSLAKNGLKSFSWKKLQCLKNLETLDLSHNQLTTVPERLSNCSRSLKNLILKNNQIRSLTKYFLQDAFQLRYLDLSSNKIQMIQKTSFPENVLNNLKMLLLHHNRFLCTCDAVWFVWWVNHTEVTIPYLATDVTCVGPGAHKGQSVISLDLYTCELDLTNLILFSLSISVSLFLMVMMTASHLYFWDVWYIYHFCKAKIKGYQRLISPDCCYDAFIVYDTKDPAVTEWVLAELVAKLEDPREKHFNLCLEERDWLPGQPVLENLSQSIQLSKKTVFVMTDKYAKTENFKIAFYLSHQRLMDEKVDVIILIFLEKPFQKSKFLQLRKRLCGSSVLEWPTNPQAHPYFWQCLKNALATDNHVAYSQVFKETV
Test: HEK293-Blue-hTLR-7 cells assay (SEAP reporter, R848 stimulation)
Assay type: cell-based
Settings: HEK293-Blue-hTLR7 cells, R848 ligand, 20 hrs incubation
Summary of the method: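 Antagonist mode: HEK293-Blue-hTLR7 cells (250,000–450,000 cells/mL) incubated 20 h at 37° C. with serially diluted compound (1% DMSO) and R848 (20 uM stock). NF-κB/AP-1-driven SEAP in supernatant read with QUANTI-Blue after 2 h at 37° C., absorbance 620–655 nm.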

SMILES | IC50 [nM]
C[C@@H]1CN(c2ccc(C#N)n3nccc23)C[C@H](CN2CCC(N3CCNCC3)CC2)O1 [Example 39, 4-[(2R,6S)-2-methyl-6-[(4-piperazin-1-yl-1-piperidyl)methyl]morpholin-4-yl]pyrazolo[1,5-a]pyridine-7-carbonitrile] | 200
C[C@@H]1CN(c2ccc(C#N)n3nccc23)C[C@H](CN2CCOC3(CCNCC3)C2)O1 [Example 71, 4-[(2R,6S)-2-methyl-6-(1-oxa-4,9-diazaspiro[5.5]undecan-4-ylmethyl)morpholin-4-yl]pyrazolo[1,5-a]pyridine-7-carbonitrile] | 450
C[C@@H]1CN(c2ccc(C#N)n3nccc23)C[C@H](CN2C3CNCC2COC3)O1 [Example 57, 4-[(2R,6S)-2-methyl-6-(3-oxa-7,9-diazabicyclo[3.3.1]nonan-9-ylmethyl)morpholin-4-yl]pyrazolo[1,5-a]pyridine-7-carbonitrile] | 73
C[C@@H]1CN(c2ccc(C#N)n3nccc23)C[C@H](CN2C3COCC2CC(N)C3)O1 (stereo partly drawn) [Example 58, 4-[(2S,6R)-2-[(7-amino-3-oxa-9-azabicyclo[3.3.1]nonan-9-yl)methyl]-6-methyl-morpholin-4-yl]pyrazolo[1,5-a]pyridine-7-carbonitrile] | 90
CC1CNCCN1C[C@H]1CN(c2ccc(C#N)n3nccc23)C[C@@H](C)O1 (single isomer, unassigned) [Example 50B] | 140
C[C@@H]1CN(c2ccc(C#N)n3nccc23)C[C@H](CN2CCC(N3CCCCCC3)CC2)O1 [Example 4, 4-[(2S,6R)-2-[[4-(azepan-1-yl)-1-piperidyl]methyl]-6-methyl-morpholin-4-yl]pyrazolo[1,5-a]pyridine-7-carbonitrile] | 180
C[C@@H]1CN(c2ccc(C#N)n3nccc23)C[C@H](CN2CCC3(CCCCN3)CC2)O1 [Example 47, 4-[(2S,6R)-2-(1,9-diazaspiro[5.5]undecan-9-ylmethyl)-6-methyl-morpholin-4-yl]pyrazolo[1,5-a]pyridine-7-carbonitrile] | 180
C[C@@H]1CN(c2ccc(C#N)n3nccc23)C[C@H](CN2CCN(C(=O)CN)CC2)O1 [Example 14, 4-[(2S,6R)-2-[[4-(2-aminoacetyl)piperazin-1-yl]methyl]-6-methyl-morpholin-4-yl]pyrazolo[1,5-a]pyridine-7-carbonitrile] | 460
C[C@@H]1CN(c2ccc(C#N)n3nccc23)C[C@H](CN2CCC3(CN(C)CCO3)C2)O1 (stereo partly drawn) [Example 76, 4-[(2R,6S)-2-methyl-6-[(9-methyl-6-oxa-2,9-diazaspiro[4.5]decan-2-yl)methyl]morpholin-4-yl]pyrazolo[1,5-a]pyridine-7-carbonitrile] | 920

Further compounds by falling IC50, results first:

IC50 [nM] | SMILES
390 | CC1CC(N)CCN1C[C@H]1CN(c2ccc(C#N)n3nccc23)C[C@@H](C)O1 (stereo partly drawn) [Example 51, 4-[(2S,6R)-2-[(4-amino-2-methyl-1-piperidyl)methyl]-6-methyl-morpholin-4-yl]pyrazolo[1,5-a]pyridine-7-carbonitrile]
240 | C[C@@H]1CN(c2ccc(C#N)n3nccc23)C[C@H](CN2CCCC3(CCNC3)C2)O1 (stereo partly drawn) [Example 44, 4-[(2S,6R)-2-(2,7-diazaspiro[4.5]decan-7-ylmethyl)-6-methyl-morpholin-4-yl]pyrazolo[1,5-a]pyridine-7-carbonitrile]
240 | C[C@@H]1CN(c2ccc(C#N)n3nccc23)C[C@H](CN2CCC(CN)CC2)O1 [Example 12, 4-[(2S,6R)-2-[[4-(aminomethyl)-1-piperidyl]methyl]-6-methyl-morpholin-4-yl]pyrazolo[1,5-a]pyridine-7-carbonitrile]
98 | C[C@@H]1CN(c2ccc(C#N)n3nccc23)C[C@H](CN2CCC3(CCCCN3)C2)O1 (stereo partly drawn) [Example 42, 4-[(2S,6R)-2-(2,6-diazaspiro[4.5]decan-2-ylmethyl)-6-methyl-morpholin-4-yl]pyrazolo[1,5-a]pyridine-7-carbonitrile]
